The record followed here is patent US12344595B2, “2-amino-n-phenyl-nicotinamides as NAV1.8 inhibitors” (Merck Sharp & Dohme LLC, priority 2018, dated 2025).

The structures appear in SMILES notation.

human Nav1.8, sequence (Q9Y5Y9 whole entry): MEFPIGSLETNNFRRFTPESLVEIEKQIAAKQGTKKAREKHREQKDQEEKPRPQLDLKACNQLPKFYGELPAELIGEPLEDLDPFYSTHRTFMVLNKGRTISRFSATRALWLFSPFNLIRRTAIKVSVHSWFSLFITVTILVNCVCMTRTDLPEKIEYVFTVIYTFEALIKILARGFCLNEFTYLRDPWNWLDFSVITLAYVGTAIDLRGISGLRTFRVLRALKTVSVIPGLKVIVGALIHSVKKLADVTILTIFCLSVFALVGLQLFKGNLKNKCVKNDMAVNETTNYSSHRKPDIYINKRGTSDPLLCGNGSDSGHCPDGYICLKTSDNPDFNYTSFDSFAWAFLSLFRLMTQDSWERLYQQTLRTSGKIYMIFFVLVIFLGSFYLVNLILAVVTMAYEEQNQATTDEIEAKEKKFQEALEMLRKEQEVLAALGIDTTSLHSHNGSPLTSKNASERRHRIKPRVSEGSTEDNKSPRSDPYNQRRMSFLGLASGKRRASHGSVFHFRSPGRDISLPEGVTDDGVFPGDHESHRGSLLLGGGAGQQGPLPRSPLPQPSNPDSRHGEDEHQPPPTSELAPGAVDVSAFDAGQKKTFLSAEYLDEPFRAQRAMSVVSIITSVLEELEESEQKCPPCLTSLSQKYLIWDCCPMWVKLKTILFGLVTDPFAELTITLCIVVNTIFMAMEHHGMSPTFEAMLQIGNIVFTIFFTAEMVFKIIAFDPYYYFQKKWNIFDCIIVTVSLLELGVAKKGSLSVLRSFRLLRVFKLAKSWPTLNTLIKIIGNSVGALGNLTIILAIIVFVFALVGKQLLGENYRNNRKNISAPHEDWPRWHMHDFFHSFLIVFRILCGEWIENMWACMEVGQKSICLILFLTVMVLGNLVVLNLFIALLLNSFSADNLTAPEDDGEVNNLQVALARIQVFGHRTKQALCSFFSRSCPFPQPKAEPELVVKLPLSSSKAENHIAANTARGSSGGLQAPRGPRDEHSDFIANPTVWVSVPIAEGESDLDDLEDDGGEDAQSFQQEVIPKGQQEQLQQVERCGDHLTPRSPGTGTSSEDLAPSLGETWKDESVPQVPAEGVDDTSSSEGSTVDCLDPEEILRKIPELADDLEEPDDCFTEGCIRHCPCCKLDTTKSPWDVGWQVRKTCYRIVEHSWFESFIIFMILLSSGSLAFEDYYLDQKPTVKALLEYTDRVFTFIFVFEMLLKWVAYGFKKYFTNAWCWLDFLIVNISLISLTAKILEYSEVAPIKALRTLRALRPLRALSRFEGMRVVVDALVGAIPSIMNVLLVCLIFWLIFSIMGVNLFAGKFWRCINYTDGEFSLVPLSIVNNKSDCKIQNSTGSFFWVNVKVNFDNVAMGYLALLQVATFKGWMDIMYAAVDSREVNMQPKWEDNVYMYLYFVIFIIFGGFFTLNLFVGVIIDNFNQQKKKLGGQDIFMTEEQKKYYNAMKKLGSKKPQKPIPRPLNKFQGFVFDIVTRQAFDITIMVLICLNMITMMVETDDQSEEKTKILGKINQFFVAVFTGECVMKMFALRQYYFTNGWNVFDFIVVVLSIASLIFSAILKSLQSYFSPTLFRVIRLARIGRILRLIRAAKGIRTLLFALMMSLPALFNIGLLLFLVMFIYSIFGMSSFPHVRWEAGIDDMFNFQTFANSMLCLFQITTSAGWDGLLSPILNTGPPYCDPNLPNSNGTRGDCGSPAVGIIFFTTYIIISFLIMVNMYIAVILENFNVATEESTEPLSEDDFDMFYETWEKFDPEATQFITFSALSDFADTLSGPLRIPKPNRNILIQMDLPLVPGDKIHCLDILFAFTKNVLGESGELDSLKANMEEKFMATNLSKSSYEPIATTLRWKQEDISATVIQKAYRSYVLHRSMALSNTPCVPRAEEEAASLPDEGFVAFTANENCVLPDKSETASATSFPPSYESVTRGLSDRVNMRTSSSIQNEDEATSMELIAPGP

The target in the experiment is human Nav1.8 (Homo sapiens (Human), UniProt Q9Y5Y9). In words: Nav1.8 Qube automated patch-clamp assay. In kind it is cell-based. Particulars: Nav1.8 Qube Assay; human Nav1.8 channels stably expressed in HEK 293 cells. As for the experimental part:
Qube® Assay Experimental Procedure
Compounds were tested on human Nav1.8 and Nav1.5 channels stably expressed in human embryo kidney (HEK) 293 cells. Sodium current measurements on Qube® were conducted as follows: automated 384-well patch-clamp assays on the Qube® platform (Sophion Biosciences) were used to measure the inhibition of sodium flow through human Nav1.8 and Nav1.5 channels. Whole-cell voltage-clamp recordings were performed in QChips® (Sophion Biosciences) at room temperature. Nav1.8 current measurements on Qube® were obtained as follows: Nav1.8 currents were elicited with a 10 second 1 Hertz (Hz) pulse train from a holding potential of −90 millivolts (mV), delivered to the cells once per minute in the control condition (DMSO only) and after compound addition. The 1 hertz pulse train stimulation consisted of ten test pulses to 10 millivolt (mV) for 20 milliseconds (ms), each of which was followed by a 980 millisecond repolarization to −67 millivolts. At the end of the 10 second pulse train stimulation, a 5 second hyperpolarization step to −100 millivolt (mV) was used to recover Nav1.8 from fast inactivation. The peak currents elicited by the 1st and 10th test pulses were used to determine IC50 values for resting inhibition and inactivated state inhibition. Nav1.5 current measurements on Qube® were obtained as follows: Nav1.5 currents were elicited with a 20 second 3 Hertz pulse train in the control condition (DMSO only) and after compound addition. The pulse train consisted of sixty 20 millisecond test pulses to 0 millivolt from a holding potential of −80 millivolt (mV). The average peak currents elicited by the last 3 test pulses were used to determine IC50 values for Nav1.5 inhibition.
The following buffers were used for the Qube® recordings: External buffer for Nav1.8 Qube® recording: 150 NaCl, 2 CaCl2, 5 KCl, 1 Mg Cl2, 10 HEPES, 12 Dextrose; External buffer for Qube® Nav1.5 recording: 120 N-Methyl-D-Glucamine, 40 NaCl, 1 KCl, 2.7 CaCl2, 5 HEPES, 0.5 MgCl2; and Internal buffer for Qube® recording: 120 CsF, 30 CsCl, 10 EGTA, 5 HEPES, 5 NaF, 2 MgCl2.
For all Qube® experiments offline analysis was used to determine percent inhibition as a function of drug concentration. IC50 values were determined by fitting to the Hill equation.
Background: The patch-clamp technique gives a direct electrical read-out from membranes.
Broadly, the IC50 is the concentration that inhibits the measured activity by half. A low value points to higher potency. As for `NS(=O)(=O)c1cccc(NC(=O)c2c(Br)ccnc2N2CCCCCC2)c1` [Example 33, 2-(azepan-1-yl)-4-bromo-N-(3-sulfamoyl-phenyl)pyridine-3-carboxamide], the IC50 is 44 nM.
In the case of `NS(=O)(=O)c1cccc(NC(=O)c2cc(C(F)(F)F)cnc2N2CCCC2)c1` [Example 63, 2-pyrrolidin-1-yl-N-(3-sulfamoylphenyl)-5-(trifluoromethyl)pyridine-3-carboxamide], half-maximal inhibition (IC50) required 2000 nM.
Under `NS(=O)(=O)c1cc(NC(=O)c2cc(C(F)(F)F)cnc2N2CCC(F)(F)CC2)cc(F)c1F` [Example 171, N-(3,4-difluoro-5-sulfamoylphenyl)-2-(4,4-difluoropiperidin-1-yl)-5-(trifluoro-methyl)nicotinamide] stands 137 nM; under `C[C@@H]1CN(c2ncc(C(F)(F)F)cc2C(=O)Nc2cccc(S(N)(=O)=O)c2)C[C@H](C)C1(F)F` [Example 125, 2-[(3S,5R)-4,4-difluoro-3,5-dimethyl-1-piperidyl]-N-(3-sulfamoylphenyl)-5-(trifluoromethyl)-pyridine-3-carboxamide], 2.4 nM.
The figure for `NS(=O)(=O)c1cc(F)cc(NC(=O)c2cc(C(F)(F)F)cnc2N2CCCCC2)c1` [Example 114, N-(3-fluoro-5-sulfamoyl-phenyl)-2-(1-piperidyl)-5-(tri-fluoromethyl)-pyridine-3-carboxamide] is 242 nM.
In turn, `CC(C)CC1CCCCCN1c1ncc(C(F)(F)F)cc1C(=O)Nc1cccc(S(N)(=O)=O)c1` (centres unmarked) [Example 68, 2-(2-isobutylazepan-1-yl)-N-(3-sulfamoyl-phenyl)-5-(trifluoro-methyl)pyridine-3-carboxamide] registered an IC50 of 3650 nM.
Under `NS(=O)(=O)c1cccc(NC(=O)c2cc(C(F)(F)F)cnc2N2CCCC(F)(F)C2)c1` [Example 51, 2-(3,3-difluoro-1-piperidyl)-N-(3-sulfamoylphenyl)-5-(trifluoromethyl)-pyridine-3-carboxamide] stands 244 nM.
As to `NS(=O)(=O)c1cccc(NC(=O)c2cc(C(F)(F)F)cnc2N2CCO[C@@H](C(F)(F)F)C2)c1` [Example 141, N-(3-sulfamoylphenyl)-5-(trifluoromethyl)-2-[(2R)-2-(trifluoro-methyl)morpholin-4-yl]pyridine-3-carboxamide], the IC50 is 553 nM.
The figure for `O=C(Nc1cccc(S(=O)(=O)C2CCCC2)c1)c1cc(C(F)(F)F)cnc1N1CCCCCC1` [Example 120, 2-(azepan-1-yl)-N-(3-cyclopentylsulfonylphenyl)-5-(trifluoro-methyl)-pyridine-3-carboxamide] is 3020 nM; for `NS(=O)(=O)c1cccc(NC(=O)c2cc(C3CCCC3)cnc2N2CCCCC2)c1` [Example 154, 5-cyclopentyl-2-(piperidin-1-yl)-N-(3-sulfamoylphenyl)-nicotinamide] it is 1790 nM; for `CS(=O)(=O)c1cccc(NC(=O)c2cc(C(F)(F)F)cnc2N2CCC(F)CC2)c1` [Example 100, 2-(4-fluoro-1-piperidyl)-N-(3-methylsulfonylphenyl)-5-(trifluoromethyl)-pyridine-3-carboxamide] it is 227 nM.
The figure for `NC(=O)c1cccc(NC(=O)c2cc(C(F)(F)F)cnc2N2CCC3(CC3)C(F)(F)C2)c1` [Example 109, N-(3-carbamoylphenyl)-2-(8,8-difluoro-6-aza-spiro[2.5]octan-6-yl)-5-(trifluoro-methyl)-pyridine-3-carboxamide] is 860 nM; for `NS(=O)(=O)c1cccc(NC(=O)c2cc(C(F)(F)F)cnc2N2C[C@H]3C[C@@H](C2)C3(F)F)c1` [Example 132, 2-[(1R,5S)-6,6-difluoro-3-azabicyclo[3.1.1]-heptan-3-yl]-N-(3-sulfamoylphenyl)-5-(trifluoromethyl)-pyridine-3-carboxamide] it is 170 nM.
The figure for `NC(=O)c1cccc(NC(=O)c2cc(Cl)cnc2N2CCCC(F)(F)CC2)c1` [Example 15, N-(3-carbamoyl-phenyl)-5-chloro-2-(4,4-difluoroazepan-1-yl)pyridine-3-carboxamide] is 19 nM; for `NS(=O)(=O)c1cccc(NC(=O)c2cc(C(F)(F)F)cnc2N2CC(C(F)(F)F)C2)c1` [Example 58, N-(3-sulfamoylphenyl)-5-(trifluoromethyl)-2-[3-(trifluoromethyl)-azetidin-1-yl]pyridine-3-carboxamide] it is 616 nM.
Regarding `NS(=O)(=O)c1cccc(NC(=O)c2cc(C(F)(F)F)cnc2N2CCCC[C@H](F)C2)c1` [Example 54, 2-[(3S)-3-fluoroazepan-1-yl]-N-(3-sulfamoyl-phenyl)-5-(trifluoro-methyl)pyridine-3-carboxamide], the IC50 is 338 nM. This IC50 lies about 1.8-fold lower than the previous one.
Under `NS(=O)(=O)c1cccc(NC(=O)c2cc(C(F)(F)F)nnc2N2CCCC(F)(F)CC2)c1` [Example 181, 3-(4,4-difluoroazepan-1-yl)-N-(3-sulfamoylphenyl)-6-(trifluoromethyl)pyridazine-4-carboxamide] stands 70 nM; under `NS(=O)(=O)c1cccc(NC(=O)c2cc(C(F)(F)F)cnc2N2CC3CC4CC(C3)CC2C4)c1` [Example 46, N-(3-sulfamoylphenyl)-2-(4-azatricyclo-[4.3.1.13,8]undecan-4-yl)-5-(trifluoromethyl)-nicotinamide], 12 nM; under `Cc1cnc(N2CCCCCC2)c(C(=O)Nc2cccc(S(N)(=O)=O)c2)c1` [Example 23, 2-(azepan-1-yl)-5-methyl-N-(3-sulfamoyl-phenyl)nicotinamide], 112 nM.
The molecule `CC(C)CS(=O)(=O)c1cccc(NC(=O)c2cc(C(F)(F)F)cnc2N2CCCCCC2)c1` [Example 119, 2-(azepan-1-yl)-N-(3-isobutylsulfonylphenyl)-5-(trifluoromethyl)-pyridine-3-carboxamide] registered an IC50 of 2400 nM.
On to `CC(C)c1cnc(N2CCCC(F)(F)CC2)c(C(=O)Nc2cccc(S(N)(=O)=O)c2)c1` [Example 162, 2-(4,4-difluoroazepan-1-yl)-5-isopropyl-N-(3-sulfamoylphenyl)nicotinamide], for which the IC50 worked out at 7.1 nM.
As for `NS(=O)(=O)c1cccc(NC(=O)c2cc(C(F)(F)F)cnc2N2C3CCC2CC3)c1` [Example 139, 2-(7-azabicyclo[2.2.1]heptan-7-yl)-N-(3-sulfamoyl-phenyl)-5-(trifluoro-methyl)pyridine-3-carboxamide], half-maximal inhibition (IC50) was put at 3460 nM.
In turn, `NS(=O)(=O)c1cccc(NC(=O)c2cc(C(F)(F)F)cnc2N2CCCO[C@H](C(F)(F)F)C2)c1` [Example 147, N-(3-sulfamoylphenyl)-5-(trifluoromethyl)-2-[(2S)-2-(trifluoro-methyl)-1,4-oxazepan-4-yl]pyridine-3-carboxamide] yielded an IC50 of 32 nM.
Take `C[C@H]1CN(c2ncc(C(F)(F)F)cc2C(=O)Nc2cccc(S(N)(=O)=O)c2)C[C@@H](C(F)(F)F)O1` [Example 148, 2-[(2S,6S)-2-methyl-6-(trifluoromethyl)-morpholin-4-yl]-N-(3-sulfamoylphenyl)-5-(trifluoromethyl) pyridine-3-carboxamide]: the IC50 stood at 113 nM.
Consider `Cc1nc(N2CCCCC2)c(C(=O)Nc2cccc(C(N)=O)c2)c(C)c1Cl` [Example 19, N-(3-carbamoyl-phenyl)-5-chloro-4,6-dimethyl-2-(1-piperidyl)pyridine-3-carboxamide], for which the IC50 came out at 295 nM.
Regarding `CC12CCN(c3ncc(C(F)(F)F)cc3C(=O)Nc3cccc(S(N)(=O)=O)c3)CC1C2(F)F` (single isomer, unassigned) [Example 128, 2-[(1R,6R or 1S,6S)-7,7-difluoro-6-methyl-3-azabicyclo[4.1.0]heptan-3-yl]-N-(3-sulfamoyl-phenyl)-5-(trifluoro-methyl)-pyridine-3-carboxamide], it took 14 nM to reach half-maximal inhibition (IC50).
As to `Cc1ccc(C(=O)Nc2cccc(S(C)(=O)=O)c2)c(N2CCCC(F)(F)CC2)n1` [Example 10, 2-(4,4-difluoroazepan-1-yl)-6-methyl-N-(3-methylsulfonylphenyl) pyridine-3-carboxamide], the IC50 was 9.2 nM. This IC50 lies about 1.5-fold lower than the previous one.
In turn, `CN1C2CCC1CN(c1ncc(C(F)(F)F)cc1C(=O)Nc1cccc(S(N)(=O)=O)c1)C2` (racemic) [Example 71, 2-[rac-(1S,5R and 1R,5S)-8-methyl-3,8-diazabicyclo[3.2.1]-octan-3-yl]-N-(3-sulfamoylphenyl)-5-(trifluoromethyl) pyridine-3-carboxamide] returned an IC50 of 5550 nM.
Regarding `NS(=O)(=O)c1cccc(NC(=O)c2cc(C(F)(F)F)cnc2N2CC3CC2CC3(F)F)c1` (single isomer, unassigned) [Example 137, 2-[(1S,4S or 1R,4R)-5,5-difluoro-2-azabicyclo-[2.2.1]heptan-2-yl]-N-(3-sulfamoylphenyl)-5-(trifluoromethyl)-pyridine-3-carboxamide], the IC50 was determined as 82 nM. Compared with the last molecule, the IC50 is about 68-fold lower.
